Results published in patent US12741974B2, “Compounds constituting C20-modified salinomycin derivatives, a method for obtaining the same, a composition containing the same, a use of said compounds and a method for obtaining an intermediate product” (FILECLO SP. Z O.O., priority 2020, dated 2021).

Assays:
[1] = tested on: MV-4-11 (human biphenotypic leukaemia); experiment: In vitro cytotoxicity test, MTT assay, 72 h incubation with compound; format: cell-based; conditions: for IC50: MV-4-11 human biphenotypic leukaemia, MTT, 72 h; for SI MV-4-11: selectivity coefficient, BALB/3T3 versus MV-4-11
Description: (§1) In vitro cytotoxicity tests were performed according to the procedure described below. […] The solvent for further dilutions was a culture medium.
(§2) The experiments were repeated at least 3 times.
After 4 hours of incubation at 37° C., 80 μL of lysis buffer was added to each well.

[2] = tested on: BALB/3T3 (normal murine fibroblasts); experiment: In vitro cytotoxicity test on normal cells, SRB assay, 72 h incubation with compound; format: cell-based; conditions: read-out: IC50 BALB/3T3
Description: (§3) Normal murine BALB/3T3 fibroblasts were also used in the tests for determining the selectivity coefficients of the compounds used in the assays.
as §1, §2

Hs294T (human melanoma) = experiment: In vitro cytotoxicity test, SRB assay, 72 h incubation with compound; format: cell-based; conditions: for IC50: Hs294T human melanoma, SRB, 72 h; for SI Hs294T: selectivity coefficient, BALB/3T3 versus Hs294T
Description: as §1, §2

[3] = tested on: LoVo (drug-sensitive human colon cancer); experiment: as above; format: cell-based; conditions: for IC50: LoVo drug-sensitive human colon cancer, SRB, 72 h; for SI LoVo: selectivity coefficient, BALB/3T3 versus LoVo
Description: as §1, §2

[4] = tested on: LoVo/DX (drug-resistant human colon cancer); experiment: as above; format: cell-based; conditions: for IC50: LoVo/DX drug-resistant human colon cancer, SRB, 72 h; for RI: drug resistance coefficient, LoVo/DX versus LoVo, 4320 min; for SI LoVo/DX: selectivity coefficient, BALB/3T3 versus LoVo/DX
Description: as §1, §2

B16-F0 (murine melanoma) = experiment: as above; format: cell-based; conditions: for IC50: B16-F0 murine melanoma, SRB, 72 h; for SI B16-F0: selectivity coefficient, BALB/3T3 versus B16-F0
Description: as §1, §2

[5] = tested on: MCF-7 (human breast cancer); experiment: as above; format: cell-based; conditions: for IC50: MCF-7 human breast cancer, SRB, 72 h; for SI MCF-7: selectivity coefficient, BALB/3T3 versus MCF-7
Description: as §1, §2

[6] = tested on: advanced head, neck, breast and ovarian cancer; conditions: small group of patients with advanced head; cited from earlier work
[7] = In vitro cytotoxicity test on normal cells, SRB assay, 72 h incubation with compound; format: cell-based; conditions: mouse, balb/3t3 cells, normal murine fibroblasts, read-out: IC50 BALB/3T3
Description: as §3, §1, §2

SMILES	IC50 [1]	SI MV-4-11 [1]	CC50 [2]	IC50 (Hs294T (human melanoma))	SI Hs294T (Hs294T (human melanoma))	IC50 [3]	SI LoVo [3]	IC50 [4]	RI [4]	SI LoVo/DX [4]	IC50 (B16-F0 (murine melanoma))	SI B16-F0 (B16-F0 (murine melanoma))	IC50 [5]	SI MCF-7 [5]	other results
CC[C@@H](C(=O)[C@@H](C)[C@@H](O)[C@H](C)[C@@H]1O[C@@H]([C@@H](CC)C(=O)O)CC[C@@H]1C)[C@H]1O[C@]2(C=C[C@H](NC(=O)C(C)C)[C@]3(CC[C@@](C)([C@H]4CC[C@](O)(CC)[C@H](C)O4)O3)O2)[C@H](C)C[C@@H]1C [(10 epi), reference compound]	400 nM	9.5	3800 nM	4000 nM	0.95										
CC[C@@H](C(=O)[C@@H](C)[C@@H](O)[C@H](C)[C@@H]1O[C@@H]([C@@H](CC)C(=O)O)CC[C@@H]1C)[C@H]1O[C@]2(C=C[C@H](NC(=O)c3ccccc3)[C@]3(CC[C@@](C)([C@H]4CC[C@](O)(CC)[C@H](C)O4)O3)O2)[C@H](C)C[C@@H]1C [(15 epi), reference compound]	33 nM	30	1000 nM	80 nM	12.5	200 nM	5	630 nM	3	1.6	400 nM	2.5	1100 nM	0.9	
CCOC(=O)N[C@H]1C=C[C@]2(O[C@H]([C@@H](CC)C(=O)[C@@H](C)[C@@H](O)[C@H](C)[C@@H]3O[C@@H]([C@@H](CC)C(=O)O)CC[C@@H]3C)[C@@H](C)C[C@H]2C)O[C@@]12CC[C@@](C)([C@H]1CC[C@](O)(CC)[C@H](C)O1)O2 [(19 epi), reference compound]	46 nM	22	1000 nM	60 nM	16	240 nM	4.1	700 nM	3	1.4	330 nM	3	1000 nM	1	
CC[C@@H](C(=O)[C@@H](C)[C@@H](O)[C@H](C)[C@@H]1O[C@@H]([C@@H](CC)C(=O)O)CC[C@@H]1C)[C@H]1O[C@]2(C=C[C@@H](O)[C@]3(CC[C@@](C)([C@H]4CC[C@](O)(CC)[C@H](C)O4)O3)O2)[C@H](C)C[C@@H]1C [salinomycin]		29.7			3.7	210 nM	9.9	480 nM	2.3	4.3		3.3		1.0	effect on cancer progression in patients [6]: inhibition of cancer progression; side effects in patients [6]: no acute side effects; IC50 ([1]; MV4-11): 70 nM; CC50 at 72 h [7]: 2080 nM; IC50 (Hs294T (human melanoma); Hs 294T): 560 nM; IC50 (B16-F0 (murine melanoma); Mus musculus, B16F0): 630 nM; IC50 ([5]; MCF7): 2100 nM
